{
  "source": "patent US20240309322A1",
  "about": "“[…], METHOD FOR MAN[…], AND MA[…] AND MICROGLIA” (KEIO UNIVERSITY, priority 2021, published 2024)",
  "system": "SPI1 gene",
  "assay": "qRT-PCR of SPI1 gene expression on adding doxycycline (PU protocol)",
  "assay_type": "cell-based, human",
  "procedure": "The expression level at the transcription level can be evaluated through, for example, quantitative reverse transcription PCR (qRT-PCR) using one obtained by reverse-transcribing mRNA prepared from target cells as a template.\nIn the PU protocol, doxycycline (1 μg/mL) was added to the culture liquid from day 6 to day 18 from the start of culture.\nBy adding doxycycline, the expression level of the SPI1 gene evaluated through qRT-PCR increased by at least about 50 times compared to a case without doxycycline.",
  "data": [
    {"smiles": "C[C@H]1c2cccc(O)c2C(=O)C2=C(O)[C@]3(O)C(=O)C(C(N)=O)=C(O)[C@@H](N(C)C)[C@@H]3[C@@H](O)[C@@H]21", "note": "[doxycycline]", "values": [
      {"measurement": "expression level of the SPI1 gene evaluated through qRT-PCR, increase compared to a case without doxycycline", "setting": "doxycycline 1 μg/mL in culture liquid from day 6 to day 18, SPI1-introduced hiPSC-derived cells", "value": "at least 50 times"},
      {"measurement": "expression level of the SPI1 gene with a primer set that selectively amplifies endogenous SPI1 gene", "setting": "regardless of the presence or absence of doxycycline, endogenous SPI1 only", "value": "1-2 times"}
    ]}
  ]
}
